Test results published in patent EP4603105A1, “PHARMACEUTICAL COMPOSITION CONTAINING CYCLIC COMPOUND HAVING SELECTIVE KRAS INHIBITORY EFFECT AGAINST HRAS AND NRAS” (CHUGAI SEIYAKU KABUSHIKI KAISHA, priority 2022, dated 2024).
Where two headings read alike, the source gives them in different places.

Assays:
[1] = target: GDP-bound NRAS wild-type protein (Homo sapiens, UniProt P01111); experiment: Binding to NRAS by surface plasmon resonance (SPR), KD and KD ratio to KRAS
Outline: (§1)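 Affinity is measured by surface plasmon resonance at 30°C against captured, GDP-loaded RAS carrying a biotinylated Avi tag. Compounds are titrated by single-cycle kinetics, and KD comes from a 1:1 fit.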

[2] = target: GDP-bound KRAS wild-type protein (Homo sapiens, UniProt P01116); experiment: Binding to KRAS by surface plasmon resonance (SPR), dissociation constant KD
Outline: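 Running buffer contained 10 µM GDP and 10 mM MgCl2 to keep RAS in the GDP state, with 4% DMSO at pH 7.4. Compounds were flowed at 100 µL/min in 75 s steps of rising concentration over captured biotin-Avi RAS at 30°C. Sensorgrams were fitted 1:1 for KD.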

HRAS wild-type protein = HRAS wild-type protein (Homo sapiens, UniProt P01112); experiment: Binding to HRAS by surface plasmon resonance (SPR), KD and KD ratio to KRAS
Outline: as §1

[3] = test system: human lung cancer strain NCI-H441; experiment: NCI-H441 cell proliferation inhibitory activity (CellTiter-Glo, 4 days); format: cell-based; conditions: read-out: NCl-H441 IC50
Method: A test compound was dispensed into a U-bottom 384-well plate as 40 nL serially diluted dimethyl sulfoxide solutions using a liquid handler Echo (LABCYTE). […] This cell suspension was dispensed in an amount of 40 µL per well into a plate containing the test compound, and cultured at 37°C in a 5% carbon dioxide gas incubator. Four days later, 20 µL of CellTiter-Glo (registered trademark) (Promega) was added to each well and […] was measured. […]

[4] = ratio of KD for GDP-bound NRAS wild-type protein to KD for KRAS
[5] = ratio of KD for HRAS wild-type protein to KD for KRAS
[6] = ratio of KD with respect to GDP-bound NRAS wild-type protein to KD with respect to KRAS
[7] = Single Cycle Kinetics, 1:1 binding model
[8] = ratio of KD with respect to HRAS wild-type protein to KD with respect to KRAS
[9] = 50% proliferation inhibitory concentration, four days

GDP-bound NRAS wild-type protein, sequence (P01111 whole entry): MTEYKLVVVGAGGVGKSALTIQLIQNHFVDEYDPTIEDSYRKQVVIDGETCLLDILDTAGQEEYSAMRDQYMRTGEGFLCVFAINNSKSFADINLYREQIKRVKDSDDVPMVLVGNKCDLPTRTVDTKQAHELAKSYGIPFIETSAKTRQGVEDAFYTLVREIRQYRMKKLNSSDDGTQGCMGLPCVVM
GDP-bound KRAS wild-type protein, sequence (P01116 1-188 isoform P01116-2): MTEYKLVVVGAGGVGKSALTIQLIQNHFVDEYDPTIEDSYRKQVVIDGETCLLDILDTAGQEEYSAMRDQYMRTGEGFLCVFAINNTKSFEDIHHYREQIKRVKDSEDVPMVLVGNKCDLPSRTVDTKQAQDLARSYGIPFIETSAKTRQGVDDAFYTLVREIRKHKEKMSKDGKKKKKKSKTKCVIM
HRAS wild-type protein, sequence (P01112 whole entry): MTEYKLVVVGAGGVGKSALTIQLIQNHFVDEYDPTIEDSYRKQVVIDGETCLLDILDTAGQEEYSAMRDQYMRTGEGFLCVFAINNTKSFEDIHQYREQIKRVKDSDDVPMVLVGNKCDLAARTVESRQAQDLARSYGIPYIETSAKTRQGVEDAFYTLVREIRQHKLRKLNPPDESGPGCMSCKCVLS

Compound | NRAS /KRAS [1, 4] | Kd ([2]; Single Cycle Kinetics) [nM] | HRAS /KRAS (HRAS wild-type protein; [5]) | IC50 ([3]; NCI-H441 cells, 4 days) [nM] | NRAS /KRAS [1, 6] | Kd [2, 7] [nM] | HRAS /KRAS (HRAS wild-type protein; [8]) | IC50 [3, 9] [nM] | Kd ([2]; 1:1 binding model) [nM]
C#CC[C@H]1C(=O)N[C@@H]([C@@H](C)CC)C(=O)N(C)CC(=O)N(C)[C@H]2C/C=C\CCN(C2=O)[C@@H](Cc2ccc(C(F)(F)F)cc2)C(=O)N(C)CC(=O)N[C@@H](CCc2ccc(C(F)(F)F)c(OC)c2)C(=O)N2C[C@H](OCC)C[C@H]2C(=O)OC2(CCC2)C(=O)N(C)[C@@H](C2CCCC2)C(=O)N(C)[C@H](C(=O)N(C)C)CC(=O)N1C [PP3373] | A (a compound having 10 or more and less than 20 is denoted as A) | 0.21 | A (a compound having 10 or more and less than 20 is denoted as A) | 12.5 |  |  |  |  | 
CCCO[C@@H]1C[C@H]2C(=O)NC3(CC(C)(C)C3)C(=O)N(C)[C@@H](C3CCCC3)C(=O)N(C)[C@H](C(=O)N(C)CC)CC(=O)N(C)[C@@H](COCC)C(=O)N[C@@H]([C@@H](C)CC)C(=O)N3CCC[C@H]3C(=O)N(C)[C@H]3C/C=C\CCN(C3=O)[C@@H](Cc3ccc(C)cc3)C(=O)N(C)CC(=O)N[C@@H](CCc3cc(F)c(C(F)(F)F)c(F)c3)C(=O)N2C1 [PP3459] | A (a compound having 10 or more and less than 20 is denoted as A) | 0.97 | A (a compound having 10 or more and less than 20 is denoted as A) | 40.2 |  |  |  |  | 
CCC[C@H]1C(=O)N[C@@H]([C@@H](C)CC)C(=O)N(C2CC2)CC(=O)N(C)[C@H]2C/C=C\CCN(C2=O)[C@@H](Cc2ccc(C)cc2)C(=O)N(C)CC(=O)N[C@@H](CCc2ccc(C(F)(F)F)c(OC)c2)C(=O)N2C[C@H](OCC)C[C@H]2C(=O)OC2(CCC2)C(=O)N(C)[C@@H](C2CCCC2)C(=O)N(C)[C@H](C(=O)N(C)C)CC(=O)N1C [PP3387] | A (a compound having 10 or more and less than 20 is denoted as A) | 0.56 | B (a compound having 3 or more and less than 10 is denoted as B) | 11.1 |  |  |  |  | 
CCO[C@@H]1C[C@H]2C(=O)NC3(CCC3)C(=O)N(C)[C@@H](C3CCCC3)C(=O)N(C)[C@H](C(=O)N3CCOCC3)CC(=O)N(C)[C@@H](CC3CC3)C(=O)N[C@@H]([C@@H](C)CC)C(=O)N(C)CC(=O)N(C)[C@H]3CCCCCN(C3=O)[C@@H](Cc3ccc(F)cc3)C(=O)N(C)CC(=O)N[C@@H](CCc3cc(F)c(C(F)(F)F)c(F)c3)C(=O)N2C1 [PP1178] |  |  |  |  | B (a compound having 3 or more and less than 10 is denoted as B) | 0.16 | B (a compound having 3 or more and less than 10 is denoted as B) | 26.3 | 
CCO[C@@H]1C[C@H]2C(=O)NC3(CCCC3)C(=O)N(C)[C@@H](C3CCCC3)C(=O)N(C)[C@H](C(=O)N3CCOCC3)CC(=O)N(C)[C@@H](CC)C(=O)N[C@@H]([C@@H](C)CC)C(=O)N(C)CC(=O)N(C)[C@H]3C[C@H](C)C(C)CN(C3=O)[C@@H](Cc3ccc(C(F)(F)F)cc3)C(=O)N(C)CC(=O)N[C@@H](CCc3cc(F)c(C(F)(F)F)c(F)c3)C(=O)N2C1 (stereo partly shown) [PP1348] |  |  |  |  | B (a compound having 3 or more and less than 10 is denoted as B) | 0.076 | B (a compound having 3 or more and less than 10 is denoted as B) | 8.7 | 
CCO[C@@H]1C[C@H]2C(=O)NC3(CCCC3)C(=O)N(C)[C@@H](C3CCCC3)C(=O)N(C)[C@H](C(=O)N(C)C)CC(=O)N(C)[C@@H](CC)C(=O)N[C@@H]([C@@H](C)CC)C(=O)N(C)CC(=O)N(C)[C@H]3CC[C@@H](C)CN(C3=O)[C@@H](Cc3ccc(C(F)(F)F)cc3)C(=O)N(C)CC(=O)N[C@@H](CCc3ccc(C(F)(F)F)c(Cl)c3)C(=O)N2C1 [PP1376] |  |  |  |  | B (a compound having 3 or more and less than 10 is denoted as B) | 0.037 | B (a compound having 3 or more and less than 10 is denoted as B) | 3.5 | 
CCC[C@H]1C(=O)N[C@@H]([C@@H](C)CC)C(=O)N(C2CC2)CC(=O)N(C)[C@H]2C/C=C\CCN(C2=O)[C@@H](Cc2ccc(C(F)(F)F)cc2)C(=O)N(C)CC(=O)N[C@@H](CCc2ccc(C(F)(F)F)c(OC)c2)C(=O)N2C[C@@H](C)C[C@H]2C(=O)N(C)C2(CCC2)C(=O)N(C)[C@@H](C2CCCC2)C(=O)N(C)[C@H](C(=O)N(C)C)CC(=O)N1C [PP2360] | A (a compound having 10 or more and less than 20 is denoted as A) |  | B (a compound having 3 or more and less than 10 is denoted as B) | 2.9 |  |  |  |  | 0.16
CCC[C@H]1C(=O)N[C@@H]([C@@H](C)CC)C(=O)N2CCC[C@H]2C(=O)N(C)[C@H]2C/C(F)=C\CCN(C2=O)[C@@H](Cc2ccc(C(F)(F)F)cc2)C(=O)N(C)CC(=O)N[C@@H](CCc2ccc(C(F)(F)F)c(OC)c2)C(=O)N2C[C@H](OCC)C[C@H]2C(=O)N(C)C2(CCC2)C(=O)N(C)[C@@H](C2CCCC2)C(=O)N(C)[C@H](C(=O)N(C)C)CC(=O)N1C [PP3509] | B (a compound having 3 or more and less than 10 is denoted as B) | 0.41 | B (a compound having 3 or more and less than 10 is denoted as B) | 9.4 |  |  |  |  | 
CCC(CC)[C@H]1C(=O)N(C)[C@H](C(=O)N(C)C)CC(=O)N(C)[C@@H](COC)C(=O)N[C@@H]([C@@H](C)CC)C(=O)N(C2CC2)CC(=O)N(C)[C@H]2C/C=C\CCN(C2=O)[C@@H](CC2CCCCC2)C(=O)N(C)CC(=O)N[C@@H](CCc2ccc(Cl)c(Cl)c2)C(=O)N2C[C@H](OC(C)C)C[C@H]2C(=O)NC2(CC(C)(C)C2)C(=O)N1C [PP2517] |  |  | A (a compound having 10 or more and less than 20 is denoted as A) | 562 |  |  |  |  | 9.3
CCCOC[C@H]1C(=O)N[C@@H]([C@@H](C)OCC)C(=O)N(C)CC(=O)N(C)[C@H]2C/C=C\CCN(C2=O)[C@@H](Cc2ccc(C)cc2)C(=O)N(C)CC(=O)N[C@@H](CCc2ccc(C(F)(F)F)c(OC)c2)C(=O)N2C[C@@H](C)C[C@H]2C(=O)NC2(CC(C)(C)C2)C(=O)N(C)[C@@H](C2CCCC2)C(=O)N(C)[C@H](C(=O)N(C)CC)CC(=O)N1C [PP2423] | A (a compound having 10 or more and less than 20 is denoted as A) |  | A (a compound having 10 or more and less than 20 is denoted as A) | 71.9 |  |  |  |  | 
CCCCCC[C@H]1C(=O)N[C@@H]([C@@H](C)CC)C(=O)N(C)CC(=O)N(C)[C@H]2C/C=C\CCN(C2=O)[C@@H](Cc2ccc(C(F)(F)F)cc2)C(=O)N(C)CC(=O)N[C@@H](CCc2cc(F)c(C(F)(F)F)c(F)c2)C(=O)N2C[C@H](OCC)C[C@H]2C(=O)NC2(CCC2)C(=O)N(C)[C@@H](C(CC)CC)C(=O)N(C)[C@H](C(=O)N(C)C)CC(=O)N1C [PP1202] |  |  |  |  |  | 0.4 |  | 24.1 | 
CC[C@H](C)[C@@H]1NC(=O)[C@H](COC)N(C)C(=O)C[C@@H](C(=O)N(C)C)N(C)C(=O)[C@H](C2CCCC2)N(C)C(=O)C2(CC(C)(C)C2)NC(=O)[C@@H]2C[C@@H](OC3CCCC3)CN2C(=O)[C@H](CCc2cc(F)c(C(F)(F)F)c(F)c2)NC(=O)CN(C)C(=O)[C@H](Cc2ccc(C)cc2)N2CC/C=C\C[C@@H](C2=O)N(C)C(=O)CN(C2CC2)C1=O [PP2626] | A (a compound having 10 or more and less than 20 is denoted as A) |  | A (a compound having 10 or more and less than 20 is denoted as A) | 33.4 |  |  |  |  | 
